These results are taken from publication PMC9127571 (eBioMedicine, 2022).

Broadly, the AUC(0-inf) is total exposure, with the tail of the curve extrapolated. What is called Cmax is the peak of the concentration-time curve.

Molecules are shown by their SMILES. ≈ marks a conversion by molar mass, not a printed value. Entries after “also recorded” stand apart in the source; their conditions may differ.

Data set [1] in a line: Cobicistat plasma pharmacokinetics. Particulars: 150 mg, all individuals. It is filed as in vivo, human.
Data set [2] is described as follows: Phase 1a safety and tolerability: adverse events, ECG, laboratory tests. It is filed as in vivo, human.
The next data set has as its system P. falciparum. To be noted: cited from earlier work.
Data set [3] can be described thus: Beagle dog oral toxicology, safety pharmacology and toxicokinetics. It is filed as in vivo. Particulars: high doses.
A short description of data set [4]: Phase 1a plasma pharmacokinetics of SJ733 and metabolite SJ506. It is filed as in vivo, human.
Where [5] appears, read: MAD and cobicistat-boosted SAD cohorts.

For the compound `CC(C)c1nc(CN(C)C(=O)N[C@@H](CCN2CCOCC2)C(=O)N[C@H](CC[C@H](Cc2ccccc2)NC(=O)OCc2cncs2)Cc2ccccc2)cs1` [cobicistat], the “time by which levels were below LLOQ (10 ng/mL)” value in data set [1] is recorded as at most 48 h.

Consider `N#Cc1cc(NC(=O)[C@H]2c3ccccc3C(=O)N(CC(F)(F)F)[C@@H]2c2cccnc2)ccc1F` [SJ733], for which, in data set [2] (setting [5]), the “relatedness of all AEs to SJ733 or cobicistat” value is “unlikely related or unrelated” and the serious adverse events entry is on record as “no serious adverse events; also recorded: no serious AEs”. For the same compound, the “post-dose QTc above 500 ms” value in data set [2] (human, in vivo, oral) is “no post-dose QTc interval change above 500 ms”. Also, the “baseline versus post-dose QTc interval change above 60 ms” value in data set [2] (instance: Day 3, 1·5 h post 300 mg, unboosted) is “one instance”. Also, in the data set with P. falciparum, the “estimated minimum inhibitory concentration (MIC)” value was 0.15 µg/mL and the “minimum inhibitory concentration (MIC)” value was 0.15 µg/mL (≈ 0.32 µM). In data set [3], the methemoglobinemia entry is “Dose-dependent, reversible methemoglobinemia”. For the same compound, the “individuals with time above MIC >96 h” value in data set [4] (300 mg daily for 3 days) stood at 0%. Besides, the “individuals with time above MIC >96 h” value in data set [4] (600 mg daily for 3 days) is 50%. Also, the “decrease in median post-hoc apparent clearance” value in data set [4] (SAD cohorts without vs with cobicistat) amounted to 72%. Besides, the AUC(0-inf) in data set [4] (human, plasma, oral) is 104 µg·h/mL. Also, in data set [4] (human, plasma, oral, maximal Cmax, unboosted SAD and MAD cohorts), the Cmax was determined as 2180 ng/mL.
